We go through 47 molecules from patent US20050234066A1, “Alpha substituted carboxylic acids” (Agouron Pharmaceuticals, Inc., priority 2004, published 2005).

For assay [1], the target named is T1, PPAR-γ (Homo sapiens, UniProt P37231).
T1 sequence (P37231 1-505): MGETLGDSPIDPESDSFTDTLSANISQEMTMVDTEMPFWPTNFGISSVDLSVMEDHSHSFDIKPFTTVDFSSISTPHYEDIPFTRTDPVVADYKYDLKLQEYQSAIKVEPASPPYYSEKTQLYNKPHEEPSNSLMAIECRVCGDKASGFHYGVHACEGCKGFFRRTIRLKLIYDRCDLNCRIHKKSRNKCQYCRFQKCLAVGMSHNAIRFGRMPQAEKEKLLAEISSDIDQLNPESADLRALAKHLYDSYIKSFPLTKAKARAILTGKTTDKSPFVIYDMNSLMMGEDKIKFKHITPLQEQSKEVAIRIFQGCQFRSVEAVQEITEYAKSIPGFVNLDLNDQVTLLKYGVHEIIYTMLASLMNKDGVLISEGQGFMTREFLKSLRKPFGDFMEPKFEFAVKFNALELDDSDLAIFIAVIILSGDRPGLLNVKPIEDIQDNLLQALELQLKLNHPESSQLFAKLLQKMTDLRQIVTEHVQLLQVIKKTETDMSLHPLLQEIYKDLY
The assay is described as follows: Scintillation Proximity Assay (SPA), displacement of 3H labeled darglitazone. The format is binding. The note with it: 3H darglitazone displacement, read-out: PPAR-gamma Ki.
Description: (§1) Scintillatian Proximity Assay (SPA) Assays
(§2) In the SPA assay, 3H labeled darglitazone (for PPAR-γ) or GW2331 (for PPAR-α) is bound to the PPAR protein captured on SPA polylysine beads and generates radioactive count signal that can be detected by TopCounts (Packard). The PPAR-bound 3H labeled ligand can be displaced by an unlabeled compound. The Ki of the compound can be then determined by the extent of displacement at various compound concentrations. Reagents: • SPA polylysine beads, which can be purchased from Amersham Bioscience. • H labeled Darglitazone for PPAR-γ. • H labeled GW2331 for PPAR-α. • PPAR proteins. • Buffer—PBS, 10% glycerol, 14 mM beta-mercaptoethanol.

The target of assay [2] is T2, PPAR-α (Homo sapiens, UniProt Q07869).
T2 sequence (Q07869 1-468): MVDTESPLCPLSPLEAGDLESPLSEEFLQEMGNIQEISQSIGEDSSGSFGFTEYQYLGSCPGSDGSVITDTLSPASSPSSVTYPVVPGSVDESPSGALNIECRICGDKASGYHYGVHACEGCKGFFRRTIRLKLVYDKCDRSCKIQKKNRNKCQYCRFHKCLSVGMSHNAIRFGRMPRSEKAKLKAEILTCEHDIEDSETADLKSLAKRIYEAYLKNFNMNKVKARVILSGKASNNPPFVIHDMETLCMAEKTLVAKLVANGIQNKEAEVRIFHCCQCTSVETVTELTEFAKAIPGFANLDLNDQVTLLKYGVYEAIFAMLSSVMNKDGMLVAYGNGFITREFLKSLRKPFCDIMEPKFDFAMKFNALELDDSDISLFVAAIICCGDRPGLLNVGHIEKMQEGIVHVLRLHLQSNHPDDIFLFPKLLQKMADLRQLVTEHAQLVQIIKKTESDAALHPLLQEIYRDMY
The assay is described as follows: Scintillation Proximity Assay (SPA), displacement of 3H labeled GW2331. The assay is classed as binding. As to conditions: 3H GW2331 displacement, read-out: PPAR-alpha Ki. (In general: In a scintillation proximity assay essentially only radioactivity close to the scintillant gives light.)
Description: as §1, §2

In general, Ki refers to a dissociation constant, usually derived from enzyme kinetics or from competition with a known ligand.

With `COc1ccc(-c2ccc(CCOc3ccc(CC4(C(=O)O)CCC4)cc3)cc2)cc1` [Example C-06, 1-{4-[2-(4′-methoxy-1,1′-biphenyl-4-yl)ethoxy]benzyl}cyclobutanecarboxylic acid], the Ki was 9500 nM in assay [1] and 41000 nM in assay [2].

On to `Cc1oc(-c2cccc(F)c2)nc1CCOc1cccc(-c2cccc(OC(C)(C)C(=O)O)c2)c1` [Example A-21], for which the results for the Ki in assay [1] and in assay [2] were 88 nM and 310 nM, respectively.

On to `Cc1oc(-c2cc(F)cc(F)c2)nc1CCOc1cccc(-c2cccc(OC(C)(C)C(=O)O)c2)c1` [Example A-22], for which the Ki in assay [1] was 170 nM; in assay [2], 850 nM.

With `Cc1oc(-c2ccccc2)nc1CCOc1ncc(CC2(C(=O)O)CCCO2)cn1` (stereo not shown) [Example C-76], the Ki in assay [1] was found to be 2300 nM; in assay [2] it was 7300 nM.

In the case of `COc1cccc(-c2nc(CCOc3ccc(CC4(C(=O)O)CCCO4)cc3)c(C)o2)c1` (stereo not shown) [Example C-85], the Ki in assay [1] worked out at 4 nM; in assay [2], 13 nM.

Take `COc1ccc(-c2ccc(CCOc3ccc(CC4(C(=O)O)CCC4)cc3)cc2)cn1` [Example C-10]: the Ki came to 2100 nM in assay [1] and 19000 nM in assay [2].

Regarding `Cc1oc(-c2ccccc2)nc1CCOc1ccc2cc(CC3(C(=O)O)CCCO3)ccc2c1` (stereo not shown) [Example C-91], the Ki in assay [1] came to 390 nM; in assay [2] it was 1800 nM.

`Cc1ccc(-c2nc(CCOc3ccc(CC4(C(=O)O)CCCO4)cc3)c(C)o2)cc1` (stereo not shown) [Example C-83]: the Ki in assay [1] was 8 nM; in assay [2], 4 nM.

In the case of `Cc1cccc(-c2nc(CCOc3ccc(CC4(C(=O)O)CCC4)cc3)c(C)o2)c1` [Example C-32], the Ki in assay [1] stood at 35 nM; in assay [2], 150 nM.

As to `Cc1oc(-c2ccc(C(F)(F)F)c(F)c2)nc1CCOc1ccc(CC2(C(=O)O)CCC2)cc1` [Example C-24], the values for the Ki in assay [1] and in assay [2] were 83 nM and 22 nM, respectively.

With `Cc1oc(-c2ccccc2)nc1CCOc1ccc(CC2(C(=O)O)CCCO2)cc1` (stereo not shown) [Example C-78], the Ki in assay [1] was found to be 6 nM; in assay [2] it was 15 nM.

`CN(CCOc1ccc(CC2(C(=O)O)CCCO2)cn1)c1nc2ccccc2o1` (stereo not shown) [Example C-69]: the Ki was 1100 nM in assay [1] and 2500 nM in assay [2].

Turning to `COC(C)(Cc1ccc(OCCc2nc(-c3cccc(C)c3)oc2C)nc1)C(=O)O` [Example D-36], the figures for the Ki in assay [1] and in assay [2] were 230 nM and 730 nM, respectively.

For the molecule `CCOC(Cc1ccc(OCCc2ccc(OS(C)(=O)=O)cc2)nc1)C(=O)O` [Example D-19], the Ki is 1700 nM in assay [1] and 6400 nM in assay [2].

Consider `COC(Cc1ccc(OCCc2nc(-c3cccc(C)c3)oc2C)nc1)C(=O)O` [Example D-03], for which the Ki in assay [1] was 11 nM; in assay [2] it was 300 nM.

As to `CCOC(Cc1ccc(OCCc2ccc(OS(=O)(=O)c3ccccc3)cc2)nc1)C(=O)O` [Example D-17], the values for the Ki in assay [1] and in assay [2] were 31 nM and 910 nM, respectively.

On to `CCOc1ccc(CCOc2ccc(CC(OCC)C(=O)O)cn2)cc1` [Example D-21], for which the Ki stood at 2100 nM in assay [1] and 10000 nM in assay [2].

Turning to `Cc1oc(-c2ccccc2)nc1CCNC(=O)OCc1cccc(OC(C)(C)C(=O)O)c1` [Example B-21], the Ki in assay [1] worked out at 990 nM; in assay [2], 4000 nM.

In the case of `Cc1oc(-c2cccc(N(C)C)c2)nc1CCOc1ccc(CC2(C(=O)O)CCC2)cc1` [Example C-21], the Ki in assay [1] came out at 53 nM; in assay [2], 66 nM.

Regarding `COC(C)(Cc1ccc(OCCc2nc(-c3ccc(C(F)(F)F)cc3)oc2C)nc1)C(=O)O` [Example D-31], the Ki in assay [1] came out at 1000 nM; in assay [2], 88 nM.

In the case of `Cc1oc(-c2cccc(C(F)(F)F)c2)nc1CCOc1ccc(CC2(C(=O)O)CCCO2)cc1` (stereo not shown) [Example C-87], the Ki is 12 nM in assay [1] and 25 nM in assay [2].

Take `CCOC(Cc1cccc(CNC(=O)OCCCc2nc(-c3ccccc3)oc2C)c1)C(=O)O` (stereo not shown) [Example B-23]: the Ki was 3400 nM in assay [1] and 2700 nM in assay [2].

As for `Cc1oc(-c2ccc(C(N)=O)cc2)nc1CCOc1ccc(CC2(C(=O)O)CCC2)cc1` [Example C-23], the Ki came out at 190 nM in assay [1] and 2500 nM in assay [2].

As for `Cc1cccc(-c2nc(CCOc3ccc(CC4(C(=O)O)CCCO4)nc3)c(C)o2)c1` (stereo not shown) [Example C-50], the results for the Ki in assay [1] and in assay [2] were 43 nM and 1100 nM, respectively.

Turning to `CS(=O)(=O)c1ccc(-c2ccc(CCOc3ccc(CC4(C(=O)O)CCC4)cc3)cc2)cc1` [Example C-11], the values for the inhibition constant Ki in assay [1] and in assay [2] were 2000 nM and 25000 nM, respectively.

As for `COC(Cc1ccc(OCCc2nc(-c3ccc(Cl)cc3)oc2C)nc1)C(=O)O` [Example D-04], the results for the Ki in assay [1] and in assay [2] were 440 nM and 290 nM, respectively.

As for `Cc1oc(-c2ccccc2)nc1CCCOC(=O)NCc1ccc(OC(C)(C)C(=O)O)cc1` [Example B-07], the Ki in assay [1] is 650 nM; in assay [2], 12000 nM.

Take `CCS(=O)(=O)Oc1ccc(CCOc2ccc(CC(OC)C(=O)O)cn2)cc1` [Example D-11]: the Ki in assay [1] came to 6200 nM; in assay [2] it was 5100 nM.

Regarding `Cc1ccc(-c2nc(CCOc3ccc(CC4(C(=O)O)CCC4)cc3)c(C)o2)cc1` [Example C-26], the Ki turned out to be 68 nM in assay [1] and 16 nM in assay [2].

In the case of `Cc1oc(-c2ccccc2)nc1CCCOc1ccc2cc(CC3(C(=O)O)CCCO3)ccc2c1` (stereo not shown) [Example C-92], the Ki came to 1100 nM in assay [1] and 2800 nM in assay [2].

For `COC(C)(Cc1ccc(OCCc2nc(-c3ccccc3)sc2C)nc1)C(=O)O` [Example D-33], the Ki in assay [1] was determined as 690 nM; in assay [2] it was 550 nM.

With `COC(Cc1ccc(OCCc2nc(-c3ccc(C(F)(F)F)cc3)oc2C)nc1)C(=O)O` [Example D-09], the Ki in assay [1] worked out at 61 nM; in assay [2], 50 nM.

Take `CCOC(Cc1cccc(CNC(=O)OCc2nc(-c3ccccc3)oc2C)c1)C(=O)O` (stereo not shown) [Example B-22]: the figures for the Ki in assay [1] and in assay [2] were 150 nM and 460 nM, respectively.

For the molecule `CC(C)(Oc1cccc(CNC(=O)OCCc2cccc(C(F)(F)F)c2)c1)C(=O)O` [Example B-03], the Ki was found to be 31000 nM in assay [1] and 9000 nM in assay [2].

Regarding `O=C(O)C1(Cc2ccc(OCCc3ccc(-c4ccc(F)cc4)cc3)cc2)CCC1` [Example C-07], the Ki in assay [1] worked out at 11000 nM; in assay [2], 22000 nM.

As for `Cc1oc(-c2ccccc2)nc1COc1ccc(OC2(C(=O)O)CCC2)cc1` [Example C-42], the Ki in assay [1] stood at 33000 nM; in assay [2], 13000 nM.

As for `Cc1oc(-c2ccccc2)nc1CCCOc1cccc(-c2cccc(OC(C)(C)C(=O)O)n2)c1` [Example A-13], the results for the Ki in assay [1] and in assay [2] were 3500 nM and 10000 nM, respectively.

As to `CCOC(Cc1cccc(CNC(=O)OCCc2nc(-c3ccccc3)oc2C)c1)C(=O)O` (stereo not shown) [Example B-24], the Ki in assay [1] worked out at 1600 nM; in assay [2], 1000 nM.

Turning to `Cc1oc(-c2ccc(C#N)cc2)nc1CCOc1ccc(CC2(C(=O)O)CCCO2)cc1` (stereo not shown) [Example C-80], the figures for the Ki in assay [1] and in assay [2] were 62 nM and 53 nM, respectively.

Turning to `O=C(O)C1(Oc2ccc(OCc3nc(-c4ccccc4)oc3-c3ccccc3)cc2)CCC1` [Example C-36], the figures for the Ki in assay [1] and in assay [2] were 1700 nM and 21000 nM, respectively.

Take `Cc1oc(-c2ccccc2)nc1CCOc1cccc(CC2(C(=O)O)CCC2)c1` [Example C-18]: the Ki in assay [1] is 3500 nM; in assay [2], 65 nM.

As for `COC(Cc1ccc(OCCc2ccc(Oc3ccccc3)cc2)nc1)C(=O)O` [Example D-13], the Ki amounted to 360 nM in assay [1] and 190 nM in assay [2].

For `Cc1oc(-c2ccccc2C#N)nc1CCOc1ccc(CC2(C(=O)O)CCC2)cc1` [Example C-22], the Ki in assay [1] stood at 800 nM; in assay [2] it was 2100 nM.

As to `Cc1oc(-c2ccccc2)nc1CCCOC(=O)NCc1cccc(OC2(C(=O)O)CCC2)c1` [Example B-16], the results for the Ki in assay [1] and in assay [2] were 1800 nM and 84 nM, respectively.

Consider `COc1cccc(-c2nc(CCOc3ccc(CC(OC)C(=O)O)cn3)c(C)o2)c1` [Example D-08], for which the Ki worked out at 2 nM in assay [1] and 15 nM in assay [2].

For the molecule `CCC(Oc1cccc(CNC(=O)OCc2ccc(OCc3ccccc3)cn2)c1)C(=O)O` (stereo not shown) [Example B-11], the Ki in assay [1] is 7900 nM; in assay [2], 960 nM.

For the molecule `Cc1oc(-c2cccc(N(C)C)c2)nc1CCOc1ccc(CC2(C(=O)O)CCCO2)cc1` (stereo not shown) [Example C-79], the values for the Ki in assay [1] and in assay [2] were 7 nM and 15 nM, respectively.
